The values that follow come from patent publication US20060165630A1, “Use of amide or ester of sugar and of fatty acid, for treating and/or preventing dry skin” (priority 2002, published 2006).

Data set [1] deals with human sebocytes immortalized in culture, derived from the SZ95 line. The data set is described as follows: Quantity of lipids produced by sebocytes (Nile Red fluorescence). It is filed as cell-based. To be noted: 100 μM, 2 days of treatment, total lipids, SZ95 sebocytes at confluence. Here is the method: The test compounds were evaluated on a model of human sebocytes immortalized in culture, derived from the SZ95 line described in Zouboulis, C. C. et al., Establishment and Characterization of an Immortalized Human Sebaceous Gland Cell Line, J. Invest. Dermatol., 113, 1011-1020 (1999).
The test consists of measuring the quantity of lipids produced by the sebocytes of the cell line (at confluence), with or without active agents present, diluted in DMSO, in such a way that the final amount of DMSO in the basal medium is 0.1%. After 2 days of treatment, the adhering cells are treated with Nile Red (1 μg/ml). The lipids content is then quantified by measuring the fluorescence of the stain (two excitation/emission pairs: 485-540 nm for neutral lipids and 540-620 nm for non-neutral lipids). The results are given for total lipids (combining both measurements).
The test is carried out in decaplicate (assayed products and control) in a 96-well plate and renewed 3 times.

Data set [2] can be described thus: Stability in solution, hydrolysis of the esters by HPLC. The format is physicochemical. The conditions noted are these: hydrolysis of glucopyranose linoleate; 0.1 wt. % in ethanol/isopropanol/water (64/16/20 by volume), 45° C., 2 months. Here is the method: The stability of the compounds according to the invention was evaluated (measurement of hydrolysis of the esters).
Solutions were prepared at 0.1 wt. % of the compounds in ethanol/isopropanol/water mixture (64/16/20 by volume). These solutions were left in a thermostat at 45° C., for 2 months.
Then the percentage hydrolysis of glucopyranose linoleate was determined by HPLC.

Data set [3] in a line: Peroxidizability in the air, proportion of intact molecules by HPLC. The format is physicochemical. The conditions noted are these: storage for two months, at room temperature (about 20 to 25° C.), HPLC with UV detection (210 nm). As to the method:
The purpose of this study is to evaluate the peroxidizability of various molecules or mixtures of molecules by carrying out various tests. These tests consist of measuring the proportion of molecules still intact after storage for two months, in air, at room temperature (about 20 to 25° C.). The loss of the starting product is monitored by HPLC with UV detection (210 nm).

Data set [4] has as its system SZ 95 sebocytes. The data set is described as follows: Cytotoxicity on sebocytes, production of LDH in the basal medium. The conditions noted are these: for Variation, LDH/control: 100 μM. It is filed as cell-based. As to the method: The tolerance of the glucose ester at 6 of linoleic acid was determined by measuring the cytotoxicity of the product on SZ 95 sebocytes, with linoleic acid alone as control.
The test conditions are identical to those examined in example 1. Cytotoxicity is measured by the production of LDH in the basal medium, according to the method described in Thomas J P et al.; Lethal damage to endothelial cells by oxidized low density lipoprotein: role of selenoperoxidases in cytoprotection against lipid hydroperoxide and iron mediated reactions. Journal of lipid research 34: 479-490. 1993.

As for `CCCCCC=CCC=CCCCCCCCC(=O)NC1C(O)OC(CO)C(O)C1O` (stereo not shown), the “Variation, lipid/CONTROL” value in data set [1] is listed as “+40%”. `CCCCCC=CCC=CCCCCCCCC(=O)O[C@H]1[C@H](O)[C@@H](CO)OC(O)[C@@H]1O` (stereo partly drawn) [3-O-octadeca-9,12-dienoyl-D-glucopyranose]: in data set [2], the “% hydrolysis” value is reported as 30%.

In the case of `CCCCCC=CCC=CCCCCCCCC(=O)OC[C@H]1OC(O)[C@H](O)[C@@H](O)[C@@H]1O` (stereo partly drawn) [6-O-octadeca-9,12-dienoyl-D-glucopyranose], the “% hydrolysis” value in data set [2] is reported as 7%. Further, in data set [3], the intact molecules came to 30%. In addition, the “Variation, LDH/control” value in data set [4] (SZ 95 sebocytes, LDH in the basal medium) was “Not significant”. For the same molecule, the “cytotoxicity with respect to sebocytes (in words)” value in data set [4] (SZ 95 sebocytes) is “No cytotoxicity was found”. Consider `C[C@]12CC[C@H](O)CC1=CC[C@@H]1[C@@H]2CC[C@]2(C)C(=O)CC[C@@H]12` [DHEA, dehydroepiandrosterone, reference compound], for which, in data set [1], the “Variation, lipid/CONTROL” value was “+80%”. `CCCCCC=CCC=CCCCCCCCC(=O)O` [Linoleic acid, octadeca-9,12-dienoic acid, reference compound]: the intact molecules result in data set [3] is “no longer contain intact molecules”. Further, the “Variation, LDH/control” value in data set [4] (human) is reported as “+20%”. For `CCCCC/C=C\C/C=C\CCCCCCCC(=O)OC` [methyl linoleate], in data set [3], the intact molecules result is recorded as “no longer contain intact molecules”.
